From patent US4443459A, “α-Tocopheryl ester of 5-substituted picolinic acid and hypotensive composition containing it” (Banyu Pharmaceutical Co., Ltd., priority 1981, dated 1984)
pIC50: −log10 of the molar value. Like-named read-outs stand apart in the source and are kept apart here.

How the values were obtained:
in vivo = details: mouse, mice
Procedure: (§1) ddY-Strain female mice (body weight about 20 g), five per group, were used and each of the test compounds was orally or intraperitoneally administered, and two days after the administration, the number of dead mice was counted. From it, the acute toxicity LD50 of each of the compounds was determined by the Behrens-Kraerber method.

ddY-Strain female mice = assay: in vivo; details: mouse, 4000 mg/kg
Procedure: as §1

[1] = tested on: Spontaneous hypertensive rats; assay: Hypotensive action in spontaneous hypertensive rats, oral (tail artery pressure, plethysmography; Table 1); format: in vivo, rat (spontaneous hypertensive, male)
Excerpt: (§2) dl-α-tocopheryl 5-butylpicolinate and dl-α-tocopherol were used after they were each dissolved in a suitable amount of ethyl ether, mixed with a solution containing 2% of Tween 80 and 2% of Span 40 and after removing ethyl ether, uniformly emulsified. 5-Butylpicolinic acid was used as a solution in 2% Tween 80+2% Span.
(§3) Spontaneous hypertensive rats (male, body weight 350 to 370 g) and Wistar rats with a normal blood pressure level (female, body weight 250 to270 g), three per group, were used. Without anesthesia, the pressure of the tail artery was measured by plethysmography.

Normotensive Wistar rats = assay: Hypotensive action in normotensive Wistar rats, oral (tail artery pressure, plethysmography; Table 2); format: in vivo, rat (Wistar, female)
Excerpt: as §2, §3

[2] = tested on: Spontaneous hypertensive rats; assay: Maximum blood pressure lowering rate, oral (Table 4); format: in vivo; details: Rattus norvegicus, 0.01 mmol/kg oral
Excerpt: (§4) The following Tables 4 and 5 summarize the maximum blood pressure lowering rates and the acute toxicity values (LD50 values) of other typical examples of the compound of formula (I).
In Table 4, 0.01 mmol/kg of each compound was orally administered to spontareous hypertensive rats.

[3] = Acute toxicity LD50, intraperitoneal (Table 5); details: mouse, in vivo, ip
Excerpt: as §4
In Table 5, each compound was intraperitoneally administered to mice.

dopamine β-hydroxylase = target: T1, dopamine β-hydroxylase (Bos taurus, UniProt P15101); assay: 50% dopamine β-hydroxylase inhibitory concentration; format: biochemical
T1 sequence (P15101 1-610): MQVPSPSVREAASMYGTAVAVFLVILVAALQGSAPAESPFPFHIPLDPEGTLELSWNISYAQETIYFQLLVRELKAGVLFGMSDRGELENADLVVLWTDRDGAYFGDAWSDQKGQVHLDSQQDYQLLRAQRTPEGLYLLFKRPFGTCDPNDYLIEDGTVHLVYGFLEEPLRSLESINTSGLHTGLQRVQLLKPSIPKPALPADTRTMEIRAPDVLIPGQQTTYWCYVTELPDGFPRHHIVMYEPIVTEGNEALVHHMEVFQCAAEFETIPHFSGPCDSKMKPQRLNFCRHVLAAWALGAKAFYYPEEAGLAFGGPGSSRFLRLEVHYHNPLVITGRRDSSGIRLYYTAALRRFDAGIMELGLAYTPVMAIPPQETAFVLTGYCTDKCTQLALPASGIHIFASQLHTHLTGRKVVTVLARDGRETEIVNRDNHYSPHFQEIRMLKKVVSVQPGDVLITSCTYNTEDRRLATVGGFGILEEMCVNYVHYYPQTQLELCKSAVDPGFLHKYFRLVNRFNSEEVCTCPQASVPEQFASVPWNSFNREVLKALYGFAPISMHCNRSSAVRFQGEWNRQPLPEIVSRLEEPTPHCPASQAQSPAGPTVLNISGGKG

[4] = 9.375 mg/kg oral, spontaneous hypertensive rats
[5] = 37.5 mg/kg oral, spontaneous hypertensive rats
[6] = ester of formula (I), read-out: Maximum blood pressure lowering rate (%) of the compound of the invention
[7] = read-out: LD50 of the compound of the invention
[8] = corresponding acid, read-out: Maximum blood pressure lowering rate (%) of the 5-substituted picolinic acid
[9] = read-out: LD50 of the 5-substituted picolinic acid
[10] = intraperitoneal, mice, corresponding acid, read-out: LD50 of the 5-substituted picolinic acid

Compound `CCCCc1ccc(C(=O)Oc2c(C)c(C)c3c(c2C)CCC(C)(CCCC(C)CCCC(C)CCCC(C)C)O3)nc1` (racemic) [Example 1, dl-α-tocopheryl 5-butylpicolinate] has an LD50 at 48 h (in vivo; ip, acute toxicity LD50, intraperitoneally administered, calculated for 5-butylpicolinic acid, intraperitoneal) greater than 1210 mg/kg, an LD50 at 48 h (in vivo; ip, acute toxicity LD50, intraperitoneally administered, intraperitoneal, two days after administration) greater than 4000 mg/kg and an LD50 at 48 h (in vivo; po, acute toxicity LD50, orally administered, calculated for 5-butylpicolinic acid) greater than 1210 mg/kg. The LD50 at 48 h (in vivo; po, acute toxicity LD50, orally administered, oral, two days after administration) was greater than 4000 mg/kg, the deaths (ddY-Strain female mice) was “no case of death was noted” and the “Blood pressure lowering rate, 1h” value [1, 4] was 20.3%. The “Blood pressure lowering rate, 2h” value [1, 4] was 3.2%, the “Blood pressure lowering rate, 3h” value [1, 4] was 0% and the “Blood pressure lowering rate, 4h” value [1, 4] was 0%. The “Blood pressure lowering rate, 1h” value [1, 5] was 29.0%, the “Blood pressure lowering rate, 2h” value [1, 5] was 18.3% and the “Blood pressure lowering rate, 3h” value [1, 5] was 13.0%. For the same compound, the “Blood pressure lowering rate, 4h” value [1, 5] was 0%, the “selectivity of hypotensive action for hypertension (in words)” value ([1]; conclusion from hypertensive vs normotensive rats) was “more selective for hypertension than 5-butylpicolinic acid” and the “hypotensive action (in words)” value ([1]; spontaneous hypertensive rats, oral, vs 5-butylpicolinic acid or its mixture with dl-α-tocopherol) was “strong hypotensive action on spontaneous hypertensive rats substantially equivalent to 5-butylpicolinicacid or a mixture of it with dl-α-tocopherol”. The “Blood pressure lowering rate, 1h” value (Normotensive Wistar rats; 150 mg/kg oral, 1h, normotensive Wistar rats) was 2.4%, the “Blood pressure lowering rate, 2h” value (Normotensive Wistar rats; 150 mg/kg oral, 2h, normotensive Wistar rats) was 18.3% and the “Blood pressure lowering rate, 3h” value (Normotensive Wistar rats; 150 mg/kg oral, 3h, normotensive Wistar rats) was 8.7%. The “Blood pressure lowering rate, 4h” value (Normotensive Wistar rats; 150 mg/kg oral, 4h, normotensive Wistar rats) was 0% and the “blood pressure lowering effect (in words)” value (Normotensive Wistar rats; normotensive rats, oral, vs 5-butylpicolinic acid) was “weaker both in strength and duration than that of 5-butylpicolinic acid”.

With `Cc1c(C)c2c(c(C)c1OC(=O)c1ccc(CCC(Br)CBr)cn1)CCC(C)(CCCC(C)CCCC(C)CCCC(C)C)O2` (racemic) [Example 4, dl-α-tocopheryl 5-(3,4-dibromobutyl)picolinate] the inhibition in vivo at 10 µmol/kg [2, 6] was 53% and the LD50 [3, 7] was greater than 4000 mg/kg.

With `Cc1c(C)c2c(c(C)c1OC(=O)c1ccc(CCC(Cl)CCl)cn1)CCC(C)(CCCC(C)CCCC(C)CCCC(C)C)O2` (racemic) [Example 5, dl-α-tocopheryl 5-(3,4-dichlorobutyl)picolinate] the inhibition in vivo at 10 µmol/kg [2, 6] was 53% and the LD50 [3, 7] was greater than 4000 mg/kg.

In the case of `Cc1c(C)c2c(c(C)c1OC(=O)c1ccc(CCCCBr)cn1)CCC(C)(CCCC(C)CCCC(C)CCCC(C)C)O2` (racemic) [Example 6, dl-α-tocopheryl 5-(4-bromobutyl)picolinate], the inhibition in vivo at 10 µmol/kg [2, 6] was 48% and the LD50 [3, 7] was greater than 4000 mg/kg.

In the case of `Cc1c(C)c2c(c(C)c1OC(=O)c1ccc(CCCCCl)cn1)CCC(C)(CCCC(C)CCCC(C)CCCC(C)C)O2` (racemic) [Example 7, dl-α-tocopheryl 5-(4-chlorobutyl)picolinate], the inhibition in vivo at 10 µmol/kg [2, 6] was 50% and the LD50 [3, 7] was greater than 4000 mg/kg.

`Cc1c(C)c2c(c(C)c1OC(=O)c1ccc(Cc3ccccc3)cn1)CCC(C)(CCCC(C)CCCC(C)CCCC(C)C)O2` (racemic) [Example 9, dl-α-tocopheryl 5-benzylpicolinate] showed an inhibition in vivo at 10 µmol/kg [2, 6] of 41% and an LD50 [3, 7] greater than 4000 mg/kg.

For `CCCCOc1ccc(C(=O)Oc2c(C)c(C)c3c(c2C)CCC(C)(CCCC(C)CCCC(C)CCCC(C)C)O3)nc1` (racemic) [Example 14, dl-α-tocopheryl 5-butyloxypicolinate], the inhibition in vivo at 10 µmol/kg [2, 6] was 36% and the LD50 [3, 7] was greater than 4000 mg/kg.

With `Cc1c(C)c2c(c(C)c1OC(=O)c1ccc(OCCCCCl)cn1)CCC(C)(CCCC(C)CCCC(C)CCCC(C)C)O2` (racemic) [Example 16, dl-α-tocopheryl 5-(4-chlorobutyloxy)picolinate] the inhibition in vivo at 10 µmol/kg [2, 6] was 40% and the LD50 [3, 7] was greater than 4000 mg/kg.

Work on `Cc1c(C)c2c(c(C)c1OC(=O)c1ccc(Oc3ccc(Cl)cc3)cn1)CCC(C)(CCCC(C)CCCC(C)CCCC(C)C)O2` (racemic) [Example 17, dl-α-tocopheryl 5-(4-chlorophenyloxy)picolinate] yielded an inhibition in vivo at 10 µmol/kg [2, 6] of 48% and an LD50 [3, 7] greater than 4000 mg/kg.

`CCCCSc1ccc(C(=O)Oc2c(C)c(C)c3c(c2C)CCC(C)(CCCC(C)CCCC(C)CCCC(C)C)O3)nc1` (racemic) [Example 18, dl-α-tocopheryl 5-butylthiopicolinate] gave an inhibition in vivo at 10 µmol/kg [2, 6] of 39% and an LD50 [3, 7] greater than 4000 mg/kg.

Compound `Cc1c(C)c2c(c(C)c1OC(=O)c1ccc(SCCCCl)cn1)CCC(C)(CCCC(C)CCCC(C)CCCC(C)C)O2` (racemic) [Example 23, dl-α-tocopheryl 5-(3-chloropropylthio)picolinate] has an inhibition in vivo at 10 µmol/kg [2, 6] of 43% and an LD50 [3, 7] greater than 4000 mg/kg.

With `CCCSc1ccc(C(=O)Oc2c(C)c(C)c3c(c2C)CCC(C)(CCCC(C)CCCC(C)CCCC(C)C)O3)nc1` (racemic) [Example 25, dl-α-tocopheryl 5-propylthiopicolate] the inhibition in vivo at 10 µmol/kg [2, 6] was 31% and the LD50 [3, 7] was greater than 4000 mg/kg.

`O=C(O)c1ccc(SCCCCl)cn1` [3-Chloropropyl] gave an inhibition in vivo at 10 µmol/kg [2, 8] of 48%, an LD50 [3, 9] of 179 mg/kg and a pIC50 (dopamine β-hydroxylase; Table 6) of 6.26.

`O=C(O)c1ccc(CCC(Br)CBr)cn1` (stereo not drawn) [5-(3,4-dibromobutyl)picolinic acid, reference compound] gave an inhibition in vivo at 10 µmol/kg [2, 8] of 50% and an LD50 [3, 10] of 110 mg/kg.

In the case of `C=CCSc1ccc(C(=O)O)nc1` [Allyl], the pIC50 (dopamine β-hydroxylase; Table 6) was 6.26.

Work on `O=C(O)c1ccc(SCc2ccccc2)cn1` [Benzyl] yielded a pIC50 (dopamine β-hydroxylase; Table 6) of 6.55.

`CSc1ccc(C(=O)O)nc1` [Methyl] gave a pIC50 (dopamine β-hydroxylase; Table 6) of 5.12.

For `CCCCSc1ccc(C(=O)O)nc1` [Referential Example 1, 5-n-butylthiopicolinic acid], the inhibition in vivo at 10 µmol/kg [2, 8] was 36%, the LD50 [3, 10] was 143 mg/kg and the pIC50 (dopamine β-hydroxylase; Referential Example 1) was 6.29.

With `CC(C)CCSc1ccc(C(=O)O)nc1` [i-Pentyl] the pIC50 (dopamine β-hydroxylase; Table 6) was 6.68.

Work on `CCCCCCCCSc1ccc(C(=O)O)nc1` [n-Octyl] yielded a pIC50 (dopamine β-hydroxylase; Table 6) of 4.64.

For `CCCSc1ccc(C(=O)O)nc1` [n-Propyl, propylthiopicolinic acid], the inhibition in vivo at 10 µmol/kg [2, 8] was 33%, the LD50 [3, 9] was 167 mg/kg and the pIC50 (dopamine β-hydroxylase; Table 6) was 6.15.

Compound `O=C(O)c1ccc(CCCCBr)cn1` [reference compound] has an inhibition in vivo at 10 µmol/kg [2, 8] of 49% and an LD50 [3, 9] of 46 mg/kg.

Work on `CCCCOc1ccc(C(=O)O)nc1` [reference compound] yielded an inhibition in vivo at 10 µmol/kg [2, 8] of 31% and an LD50 [3, 9] of 134 mg/kg.

Work on `O=C(O)c1ccc(CCC(Cl)CCl)cn1` (stereo not drawn) [reference compound] yielded an inhibition in vivo at 10 µmol/kg [2, 8] of 53% and an LD50 [3, 9] of 41 mg/kg.

`O=C(O)c1ccc(CCCCCl)cn1` [reference compound] showed an inhibition in vivo at 10 µmol/kg [2, 8] of 46% and an LD50 [3, 9] of 44 mg/kg.

`O=C(O)c1ccc(OCCCCCl)cn1` [reference compound] gave an inhibition in vivo at 10 µmol/kg [2, 8] of 43% and an LD50 [3, 9] of 172 mg/kg.

In the case of `O=C(O)c1ccc(Cc2ccccc2)cn1` [reference compound], the inhibition in vivo at 10 µmol/kg [2, 8] was 39% and the LD50 [3, 9] was 135 mg/kg.

In the case of `O=C(O)c1ccc(Oc2ccc(Cl)cc2)cn1` [reference compound], the inhibition in vivo at 10 µmol/kg [2, 8] was 56% and the LD50 [3, 9] was 123 mg/kg.
